Data taken from patent publication US9784732B2, “Acidic environment-detecting fluorescent probe” (THE UNIVERSITY OF TOKYO, priority 2011, dated 2017).
Like-named read-outs stand apart in the source and are kept apart here.

Tests used:
HER2 = experiment: High-throughput evaluation of HER2 downregulation; format: cell-based; conditions: 17-AAG 10 μM with Compound 3 30 nm; SKOV3 cells expressing HER2-HaloTag; five hours; versus DMSO
Protocol: The pH-sensitive fluorescent probe Compound 3 and 17-AAG (Wako Pure Chemicals) were diluted with water. An equal amount of DMSO (Sigma-Aldrich) was added as a control for the 17-AAG. SKOV3 cells expressing the HER2-HaloTag were suspended in RPMI (Nacalai Tesque) containing 2% FBS (CCB), implanted in a 384-well imaging plate (PerkinElmer), and cultured overnight at 37° C. in a 5% CO2 atmosphere.
Compound 3 and 17-AAG were added to […] of a 384-well imaging plate implanted with SKOV3 cells expressing the HER2-HaloTag to respective final concentrations of 30 nm and 10 μM. DMSO alone was added to 32 wells instead of 17-AAG as a control. Fluorescence values at 580 nm induced by 535 excitation were measured using a plate reader, after which culturing was performed at 37° C. in a 5% CO2 atmosphere for five hours, and fluorescence values were again measured using the plate reader. […] In this way, it is possible to simply evaluate downregulation of the cancer-related receptor HER2 via fluorescence values.

[1] = pH profile of fluorescent intensity (pKa) in phosphate buffer; format: physicochemical; conditions: sodium phosphate buffer, from pH profile of fluorescent intensity
Protocol: (§1) In order to measure absorption and fluorescence spectra, a dye compound was dissolved in dimethyl sulfoxide (DMSO, fluorescent analysis-grade, Dojindo) to obtain 1 mM of standard solution. Using a UV-1650 PCUV/V spectrometer (Shimadzu) and an FP-6600 fluorescence spectrometer (JASCO), the optical properties of the dye compound in 200 mM of a sodium phosphate buffer solution containing 0.03% (v/v) DMSO as a cosolvent were measured. In order to determine fluorescence quantum yield (Φf1), the value (Φf1=0.65) of Rhodamine B in ethanol was used as a standard. The value was calculated according to the following formula. Φx/Φst=[Ast/Ax][nx^2/nst^2][Dx/Dst]
The absorption spectrum and fluorescence emission spectrum when solution pH was altered from 2.0 to 10.0 for Compound A obtained in Example 1 were obtained according to the measurement method described above.
Using a 100 mM phosphate buffer solution of Compound 1 (500 nM) obtained in Example 2, pH was altered from 4.39 to 9.24, and the fluorescence spectrum was measured.
A fitted curve for the pH profile was obtained according to the following formula.
Next, in order to investigate the reversibility of pH changes in Dye Conjugate 1, the fluorescent intensity ratio (fluorescent intensity at 540 nm/fluorescent intensity at 488 nm) was calculated for a case in which pH was cycled between 7.1 and 3.2 every 30 seconds.

[2] = Optical properties and fluorescence quantum yield; format: physicochemical; conditions: for Maximum Absorption Wavelength (nm) / Maximum Emission Wavelength (nm): 200 mM sodium phosphate buffer, 0.03% (v/v) DMSO
Protocol: as §1
The absorption spectrum and fluorescence emission spectrum when solution pH was altered from 2.0 to 10.0 for Compound A obtained in Example 1 were obtained according to the measurement method described above. Absorption spectra are shown in FIG. 1-1, fluorescence emission spectra in FIG. 1-2, and a pH profile showing pH-induced changes in fluorescent intensity in FIG. 1-3. The maximum absorption wavelength, maximum emission wavelength, fluorescent quantum yield, and pKa when pH is changed from 10.0 to 4.0 are shown in table 1.

[3] = in ethanol; cited from earlier work

Compound: C=CCNC1=C2C[C@@H](C)C[C@H](OC)[C@H](O)[C@@H](C)/C=C(\C)[C@H](OC(N)=O)[C@@H](OC)/C=C\C=C(/C)C(=O)NC(=CC1=O)C2=O [Compound 17-AAG]
- Difference in fluorescence values before and after culturing (F5−F0) (HER2): large increase in fluorescence values

Compound: CN1CCN(c2ccc3c(-c4ccccc4C(=O)O)c4ccc(=[N+]5CCN(C)CC5)cc-4oc3c2)CC1.[Cl-] [Compound A, 1-(9-(2-carboxyphenyl)-6-(4-methylpiperazine-1-yl)-3H-xanthene-3-ylidene)-4-methylpiperazine-1-ium chloride]
- pKa ([1]; read-out: pKa (higher, pKa2)): 6.8
- pKa ([1]; read-out: pKa (lower, pKa1)): 5.4
- Shift of maximum absorption wavelength to shorter wavelength ([2]; deprotonated type (pH 10.0) to protonated type (pH 4.0)): 20 nm
- Maximum Absorption Wavelength (nm) ([2]; pH 4.0): 527 nm
- Maximum Emission Wavelength (nm) ([2]; pH 4.0): 554 nm
- Fluorescence Quantum Yield ([2]; pH 10.0 (deprotonated type), standard Rhodamine B in ethanol): 0.024
- Maximum Absorption Wavelength (nm) ([2]; pH 10.0): 547 nm
- Maximum Emission Wavelength (nm) ([2]; pH 10.0): 575 nm

Compound: CN1CCN(c2ccc3c(-c4ccccc4C(=O)N(C)CC(=O)NCCOCCOCCOCCC(=O)[O-])c4ccc(=[N+]5CCN(C)CC5)cc-4oc3c2)CC1 [Compound D, 2-methyl-1-(2-(3-(4-methylpiperazine-1-ium-1-ylidene)-6-(4-methylpiperazine-1-yl)-3H-xanthene-9-yl)phenyl)-1,4-dioxo-8,11,14-trioxa-2,5-diazaheptadecane-17-oate]
- pKa ([1]; read-out: pKa (higher, pKa2)): 6.6
- pKa ([1]; read-out: pKa (lower, pKa1)): 5.3

Compound: CCN(CC)c1ccc2c(-c3ccccc3C(=O)O)c3ccc(=[N+](CC)CC)cc-3oc2c1.[Cl-] [Rhodamine B]
- Fluorescence Quantum Yield of the standard [3]: 0.65
